Experimental findings from US6602827B1, “Herbicidal 5-chlorodifluoromethyl-1,3,4-thiadiazol-2-yl-oxyacetanilides” (Bayer Aktiengesellschaft, priority 1999, dated 2003) are described below.

Data set [1] has as its system weeds. Briefly: Pre-emergence test, overall activity against weeds. In kind it is in vivo. The note with it: in words. How it is done:
(§1) Pre-emergence Test Solvent: 5 parts by weight of acetone Emulsifier: 1 part by weight of alkylaryl polyglycol ether To produce a suitable preparation of active compound, 1 part by weight of active compound is mixed with the stated amount of solvent, the stated amount of emulsifier is added and the concentrate is diluted with water to the desired concentration. Seeds of the test plants are sown in normal soil. After 24 hours, the soil is sprayed with the preparation of active compound such that the particular amount of active compound desired is applied per unit area. The active compound concentration in the spray liquor is chosen so that the particular amount of active compound desired is applied in 1000 liters of water per hectare. After three weeks, the degree of damage to the plants is rated in % damage in comparison to the development of the untreated control. The figures denote: 0%=no effect (like untreated control) 100%=total destruction

In data set [2] the test system is Setaria. As to the kind of experiment: Pre-emergence test/greenhouse. Format: in vivo. The conditions noted are these: 125 g of ai./ha, rated after three weeks vs untreated control, 0% = no effect, 100% = total destruction. Here is the method:
as §1

A further data set deals with Lolium. As to the kind of experiment: Pre-emergence test/greenhouse. The conditions noted are these: 125 g of ai./ha, rated after three weeks vs untreated control, 0% = no effect, 100% = total destruction. In kind it is in vivo. Here is the method: as §1
The next data set concerns Wheat. As to the kind of experiment: Pre-emergence test/greenhouse. In kind it is in vivo. The note with it: 125 g of ai./ha, rated after three weeks vs untreated control, 0% = no effect, 100% = total destruction. How it is done:
as §1

In another data set the test system is Eriochloa. Briefly: Pre-emergence test/greenhouse. In kind it is in vivo. The note with it: 125 g of ai./ha, rated after three weeks vs untreated control, 0% = no effect, 100% = total destruction. Here is the method:
as §1

For data set [3], the system named is Galium. As to the kind of experiment: Pre-emergence test/greenhouse. In kind it is in vivo. The note with it: 125 g of ai./ha, rated after three weeks vs untreated control, 0% = no effect, 100% = total destruction. How it is done: as §1
For the next data set, the system named is Matricaria. Briefly: Pre-emergence test/greenhouse. The note with it: 125 g of ai./ha, rated after three weeks vs untreated control, 0% = no effect, 100% = total destruction. In kind it is in vivo. How it is done: as §1
The test system of the next data set is Soya. As to the kind of experiment: Pre-emergence test/greenhouse. In kind it is in vivo. The note with it: 125 g of ai./ha, rated after three weeks vs untreated control, 0% = no effect, 100% = total destruction. How it is done: as §1
For data set [4], the system named is crop plants, such as soya and wheat. Briefly: Pre-emergence test, crop tolerance. Format: in vivo. The conditions noted are these: in words. Here is the method: as §1
Data set [5] deals with Setaria. Briefly: Post-emergence test/greenhouse. The note with it: 1000 g of ai./ha, rated after three weeks vs untreated control, 0% = no effect, 100% = total destruction. In kind it is in vivo. Here is the method: (§2) Solvent: 5 parts by weight of acetone
(§3) Emulsifier: 1 part by weight of alkylaryl polyglycol ether
(§4) To produce a suitable preparation of active compound, 1 part by weight of active compound is mixed with the stated amount of solvent, the stated amount of emulsifier is added and the concentrate is diluted with water to the desired concentration.
(§5) Test plants which have a height of 5 to 15 cm are sprayed with the preparation of active compound such that the particular amounts of active compound desired are applied per unit area. The concentration of the spray liquor is chosen so that the particular amounts of active compound desired are applied in 1000 1 of water/ha.
(§6) After three weeks, the degree of damage to the plants is rated in % damage in comparison to the development of the untreated control.
(§7) 0%=no effect (like untreated control))

For a further data set, the system named is Xanthium. As to the kind of experiment: Post-emergence test/greenhouse. Format: in vivo. The conditions noted are these: 1000 g of ai./ha, rated after three weeks vs untreated control, 0% = no effect, 100% = total destruction. Here is the method: as §2, §3, §4, §5, §6, §7
In a further data set the test system is Maize. As to the kind of experiment: Post-emergence test/greenhouse. Format: in vivo. The conditions noted are these: 1000 g of ai./ha, rated after three weeks vs untreated control, 0% = no effect, 100% = total destruction. Here is the method: as §2, §3, §4, §5, §6, §7
For data set [6], the system named is Galium. As to the kind of experiment: Post-emergence test/greenhouse. Format: in vivo. The conditions noted are these: 1000 g of ai./ha, rated after three weeks vs untreated control, 0% = no effect, 100% = total destruction. How it is done: as §2, §3, §4, §5, §6, §7
The subject of data set [7] is weeds. Briefly: Post-emergence test, overall activity against weeds. The note with it: in words. In kind it is in vivo. Here is the method: as §2, §3, §4, §5, §6, §7
Data set [8] has as its system crop plants, such as maize. Briefly: Post-emergence test, crop tolerance. The note with it: in words. In kind it is in vivo. Here is the method: as §2, §3, §4, §5, §6, §7

As a reminder, the melting point is the temperature, or range, at which the solid turns liquid.

Turning to `CC(C)N(C(=O)COc1nnc(C(F)(F)Cl)s1)c1ccc(F)cc1` [Example 1, N-i-propyl-N-(4-fluoro-phenyl)-2-(5-chlorodifluoromethyl-1,3,4-thiadiazol-2-yl-oxy)-acetamide], the melting point stood at 98 °C. In addition, in the data set with weeds [1], the activity against weeds result is listed as “very strong activity”. For the same molecule, the “degree of damage, Setaria” value in the data set with Setaria [2] is on record as 100%. Moreover, in the data set with Lolium, the “degree of damage, Lolium” value is given as 90%. Moreover, in the data set with Wheat, the “degree of damage, Wheat” value was 0%. Besides, the “degree of damage, Eriochloa” value with Eriochloa is listed as 100%. In addition, the “degree of damage, Galium” value in the data set on Galium [3] was 90%. Also, the “degree of damage, Matricaria” value in the data set with Matricaria came to 100%. Moreover, the “degree of damage, Soya” value in the data set with Soya is given as 0%. Moreover, the “tolerance by crop plants” value in data set [4] is recorded as “tolerated well”. In addition, the “degree of damage, Setaria” value with Setaria [5] worked out at 95%. Moreover, the “degree of damage, Xanthium” value with Xanthium came to 80%. In addition, in the data set on Maize, the “degree of damage, Maize” value is given as 30%. The “degree of damage, Galium” value in the data set with Galium [6] is on record as 95%. Besides, in the data set with weeds [7], the activity against weeds result is “strong activity”. The “tolerance by crop plants” value in data set [8] is “tolerated well”.
